In patent US20090047314A1, “MICROENCAPSULATION SYSTEMS AND APPLICATIONS OF SAME” (Centre National de la Recherche Scientifique (C.N.R.S.), priority 2003, published 2009):

Assay: Encapsulation of molecule in the beads (determination by HPLC)
Type: physicochemical
Conditions: α-cyclodextrin/soya oil beads
Experimental: The procedure is carried out as described in Example 1, but using, as molecules of interest, molecules that are active in therapeutics or that can be used in cosmetics, such as pigments or dyes, vitamin E acetate, benzophenone or isotretinoin.
In addition, it was shown that 30% of vitamin E acetate is encapsulated (determination by HPLC).

fraction of molecule encapsulated in the beads: 30%
SMILES: CC(=O)Oc1c(C)c(C)c2c(c1C)CCC(C)(CCC[C@H](C)CCC[C@H](C)CCCC(C)C)O2 (stereo partly shown) [vitamin E acetate]
